Data as given in US20070141641A1, “Compositions & methods for reformulating biological membranes for arrays” (priority 2003, published 2007).

Legend:
[1] = tested on: MOTR, NTR1, ORL1, OP1 receptor microspots; assay: GPCR membrane microarray, labeled-ligand cocktail binding with or without telenzepine, other receptor microspots; conditions: 1 μM telenzepin, FIG. 1B
Source text: (§1) FIG. 1A and FIG. 1B are false-color fluorescence images of two membrane microarrays made using six different GPCR-membrane preparations (from left to right, they are HEK cell membrane as control, muscarinic receptor subtype 1 (M1), motilin receptor (MOTR), neurotensin receptor subtype 1 (NTR1), opioid receptor like subtype 1 (ORL1) and delta 2 opioid receptor (OP1)).
(§2) FIGS. 1A & 1B are false-color fluorescence image of a membrane microarray made using six different GPCR-membrane preparations. The images, in Cy5 to Cy3 ratio, are taken after the array is assayed with a binding buffered solution containing a mixture or cocktail solution of labeled ligands. […] FIGS. 1A and 1B are, respectively, in the absence and presence of 1 μM telenzepin. Before array fabrication, all receptor membranes obtained from commercial vendors are re-formulated using a standardized ink containing: ˜20 mM Tris-HCl, pH 7.4, ˜10 mM MgCl2, ˜10% sucrose, 5% glycerol, 0.5% BSA, total membrane proteins in the range of 1 to 3 mg/ml.

[2] = biological target: T1, muscarinic receptor subtype 1 (M1) (Homo sapiens, UniProt P11229); assay: GPCR membrane microarray, labeled-ligand cocktail binding with or without telenzepine, M1 microspots; conditions: 1 μM telenzepin; cocktail with 2 nM Cy3-B-telenzepine; FIG. 1B
T1 sequence (P11229 1-460): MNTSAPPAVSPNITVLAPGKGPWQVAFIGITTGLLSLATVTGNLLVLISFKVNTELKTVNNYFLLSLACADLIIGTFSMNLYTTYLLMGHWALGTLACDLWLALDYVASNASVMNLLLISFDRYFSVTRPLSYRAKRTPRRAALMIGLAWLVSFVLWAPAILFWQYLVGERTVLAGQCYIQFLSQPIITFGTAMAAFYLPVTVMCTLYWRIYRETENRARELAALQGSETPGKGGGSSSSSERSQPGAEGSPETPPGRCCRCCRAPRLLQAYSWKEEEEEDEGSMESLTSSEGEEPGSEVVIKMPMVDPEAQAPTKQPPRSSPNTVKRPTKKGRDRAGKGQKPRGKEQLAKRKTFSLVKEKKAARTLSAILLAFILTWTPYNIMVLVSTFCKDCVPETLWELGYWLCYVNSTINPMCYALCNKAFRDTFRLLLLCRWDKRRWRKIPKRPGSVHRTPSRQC
Source text: as §1, §2

`Cc1scc2c1N(C(=O)CN1CCN(C)CC1)c1ccccc1NC2=O` [telenzepine] was tested, and the “inhibition of labeled ligand binding to other receptor microspots” value [1] was “not any other receptor microspots” and the “inhibition of labeled ligand binding to M1 microspots” value [2] was “specifically inhibits the binding of labeled ligand to M1 microspots”.
